Results: PubChem BioAssay AID1259411 (Chemical Carcinogenesis Research Information System (CCRIS), 2018)
The source made the active and inactive calls. How the calls were made is not given here.

Tested on: rodent carcinogenicity bioassays, tumor incidence
Test: CCRIS carcinogenicity studies
Procedure, shortened: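 Archive of carcinogenicity, mutagenicity, tumor promotion and tumor inhibition results drawn from journals, NCI reports and other sources, expert-reviewed; covers 1985-2011 and is no longer updated.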

c1ccc2c(c1)cc1ccc3cccc4ccc2c1c34
carcinogen call (Species: MOUSE, Strain/Sex: SWISS/FEMALE, Route: DERMAL, Dose: 0, 2.2, 6.6, 20 NMOL IN 50 µL ACETONE 2/WK FOR 48 WK (STUDY DURATION: 61 WK), Dose: 0, 2.2, 6.6, 20 NMOL IN 50 µL ACETONE 2/WK FOR 48 WK (STUDY DURATION: 61 WK), Tumor Site: Type of Lesion: SKIN: PAPILLOMA, SKIN: SQUAMOUS CELL CARCINOMA): active; positive
carcinogen call (Species: MOUSE, Strain/Sex: SWISS/FEMALE, Route: DERMAL, Dose: 0, 22.2, 66.6, 200 NMOL IN 50 µL ACETONE 2/WK FOR 48 WK (STUDY DURATION: 61 WK), Dose: 0, 22.2, 66.6, 200 NMOL IN 50 µL ACETONE 2/WK FOR 48 WK (STUDY DURATION: 61 WK), Tumor Site: Type of Lesion: SKIN: SQUAMOUS CELL CARCINOMA): active; positive
carcinogen call (Species: MOUSE, Strain/Sex: SWISS/FEMALE, Route: DERMAL, Dose: 0.01-0.5%, 3/WK, Tumor Site: Type of Lesion: INTEGUMENTARY SYSTEM (SKIN): CARCINOMA, PAPILLOMA): active; positive
carcinogen call (Species: MOUSE, Strain/Sex: SWISS/FEMALE, Route: DERMAL, Dose: 0.1-9 UG, 3/WK FOR < 700 D, Tumor Site: Type of Lesion: INTEGUMENTARY SYSTEM (SKIN)): active; positive
carcinogen call (Species: MOUSE, Strain/Sex: WILDTYPE/MALE, Route: GAVAGE, Dose: 0, 13, 39 MG/KG BW IN 0.1 ML SOY OIL 3/WK FOR 13 WK (STUDY DURATION: 291 D), Dose: 0, 13, 39 MG/KG BW IN 0.1 ML SOY OIL 3/WK FOR 13 WK (STUDY DURATION: 291 D), Tumor Site: Type of Lesion: LYMPHATIC SYSTEM: LYMPHOMA, FORESTOMACH: TUMOR): active; positive
carcinogen call (Species: Mouse, Strain/Sex: 129 x MF1 Gstp-null (14-15 males and females), Route: Intraperitoneal, Dose: 200 mg/kg, once, study duration 5 mo, Tumor Site: Type of Lesion: Lung: adenoma (incidence 71% vs 27% in controls, multiplicity 3.0 vs 0.3 in controls)): inactive; negative
carcinogen call (Species: Mouse, Strain/Sex: 129 x MF1 wild type (14-16 males and females), Route: Intraperitoneal, Dose: 200 mg/kg, once, study duration 5 mo, Tumor Site: Type of Lesion: Lung: adenoma (incidence 29% vs 25% in controls, multiplicity 0.4 vs 0.3 in controls)): inactive; negative
carcinogen call (Species: RABBIT, Route: DERMAL, Dose: 0.001-0.5%, 5/WK, Tumor Site: Type of Lesion: INTEGUMENTARY SYSTEM (SKIN)): active; positive
carcinogen call (Species: RABBIT, Route: DERMAL, Tumor Site: Type of Lesion: INTEGUMENTARY SYSTEM (SKIN): PAPILLOMA, CARCINOMA): active; positive
carcinogen call (Species: RAT, Route: INTRATRACHEAL, Dose: 0.0005-2.5 MG, 1/MO FOR 10 MO, OBSERVED 2 YR, Tumor Site: Type of Lesion: LUNG): active; positive
carcinogen call (Species: RAT, Route: SUBCUTANEOUS, Dose: 0.05, 0.1, 0.5, 1.0 MG, SINGLE DOSE, Tumor Site: Type of Lesion: INJECTION SITE): active; positive
carcinogen call (Species: RAT, Route: SUBCUTANEOUS, Tumor Site: Type of Lesion: INJECTION SITE): active; positive
carcinogen call (Species: RAT, Strain/Sex: F344/MALE, Route: LUNG IMPLANT, Dose: 0, 50, 100, 200 UG IN BEESWAX/TRICAPRYLIN INTO LEFT LUNG ONCE (STUDY DURATION: 100 WK), Dose: 0, 50, 100, 200 UG IN BEESWAX/TRICAPRYLIN INTO LEFT LUNG ONCE (STUDY DURATION: 100 WK), Tumor Site: Type of Lesion: LUNG: SQUAMOUS CELL CARCINOMA): active; positive
carcinogen call (Species: RAT, Strain/Sex: F344/MALE, Route: PULMONARY IMPLANT, Dose: 0, 50, 100, 200 UG IN 50 µL BEESWAX/TRICAPRYLIN IMPLANTED FOR UP TO 100 WK (STUDY DURATION: 100 WK), Dose: 0, 50, 100, 200 UG IN 50 µL BEESWAX/TRICAPRYLIN IMPLANTED FOR UP TO 100 WK (STUDY DURATION: 100 WK), Tumor Site: Type of Lesion: LUNG: TUMOR): active; positive
carcinogen call (Species: RAT, Strain/Sex: F344/MALE, Route: SUBCUTANEOUS IMPLANT, Dose: 0, 8, 40, 200, 1000 UG IN 50 µL BEESWAX/TRICAPRYLIN IMPLANTED FOR UP TO 45 WK (STUDY DURATION: 45 WK), Dose: 0, 8, 40, 200, 1000 UG IN 50 µL BEESWAX/TRICAPRYLIN IMPLANTED FOR UP TO 45 WK (STUDY DURATION: 45 WK), Tumor Site: Type of Lesion: IMPLANT SITE: TUMOR): active; positive
carcinogen call (Species: RAT, Strain/Sex: OSBORNE-MENDEL/FEMALE, Route: INTRAPULMONARY IMPLANT, Dose: 0, 0.03, 0.1, 0.3 MG IN BEESWAX AND TRIOCTANOIN IMPLANTED IN LUNG (STUDY DURATION: 141 WK), Dose: 0, 0.03, 0.1, 0.3 MG IN BEESWAX AND TRIOCTANOIN IMPLANTED IN LUNG (STUDY DURATION: 141 WK), Tumor Site: Type of Lesion: LUNG: CARCINOMA): active; positive
carcinogen call (Species: RAT, Strain/Sex: OSBORNE-MENDEL/FEMALE, Route: LUNG IMPLANT, Dose: 0, 0.1, 0.3, 1.0 MG IN BEESWAX/TRIOCTANOIN (STUDY DURATION: LIFETIME), Dose: 0, 0.1, 0.3, 1.0 MG IN BEESWAX/TRIOCTANOIN (STUDY DURATION: LIFETIME), Tumor Site: Type of Lesion: LUNG: EPIDERMOID CARCINOMA, PLEOMORPHIC SARCOMA): active; positive
carcinogen call (Species: RAT, Strain/Sex: SPRAGUE-DAWLEY/FEMALE, Route: INJECTION, Dose: 0, 0.25, 1 UMOL PER MAMMARY GLAND (STUDY DURATION: 24 WK), Dose: 0, 0.25, 1 UMOL PER MAMMARY GLAND (STUDY DURATION: 24 WK), Tumor Site: Type of Lesion: MAMMARY GLAND: TUMOR): active; positive
carcinogen call (Species: RAT, Strain/Sex: SPRAGUE-DAWLEY/FEMALE, Route: INTRAVENOUS, Dose: 39 MG/KG, SINGLE DOSE, Tumor Site: Type of Lesion: MAMMARY GLAND: CARCINOMA): active; positive
carcinogen call (Species: RAT, Strain/Sex: SPRAGUE-DAWLEY/FEMALE, Route: INTRAVENOUS, Tumor Site: Type of Lesion: MAMMARY GLAND: CARCINOMA): active; positive
carcinogen call (Species: RAT, Strain/Sex: STRAIN-CD/FEMALE, Route: GAVAGE, Dose: 0, 50 UMOL IN 0.5 ML TRIOCTANOIN 1/WK FOR 8 WK (STUDY DURATION: 49 WK), Tumor Site: Type of Lesion: MAMMARY GLAND: FIBROADENOMA, DESMOPLASTIC ADENOMA, ADENOCARCINOMA): active; positive
